Here are results for eleven molecules from patent publication US10730884B2, “Substituted indole compound derivatives as dengue viral replication inhibitors” (Janssen Pharmaceuticals, Inc., priority 2016, dated 2020).

One series relates to DENV-2 16681 strain. Nature of the series: DENV-2 antiviral assay (eGFP-labeled virus, Vero cells). Format: cell-based, Dengue virus. The conditions noted are these: for EC50: DENV-2 16681 eGFP, Vero cells, MOI 0.5, 3 days; for SI: SI=CC50/EC50, DENV-2 antiviral assay. How it is done:
The antiviral activity of all the compounds of the invention was tested against the DENV-2 16681 strain which was labeled with enhanced green fluorescent protein (eGPF). The culture medium consists of minimal essential medium supplemented with 2% of heat-inactivated fetal calf serum, 0.04% gentamycin (50 mg/mL) and 2 mM of L-glutamine. Vero cells, obtained from ECACC, were suspended in culture medium and 25 μL was added to 384-well plates (2500 cells/well), which already contain the antiviral compounds. Typically, these plates contain a 5-fold serial dilution of 9 dilution steps of the test compound at 200 times the final concentration in 100% DMSO (200 nL). […] Finally, each plate contains wells which are assigned as virus controls (containing cells and virus in the absence of compound), cell controls (containing cells in the absence of virus and compound) and medium controls (containing medium in the absence of cells, virus and compounds). To the wells assigned as medium control, 25 μL of culture medium was added instead of Vero cells. Once the cells were added to the plates, the plates were incubated for 30 minutes at room temperature to allow the cells to distribute evenly within the wells. Next, the plates were incubated in a fully humidified incubator (37° C., 5% CO2) until the next day. Then, DENV-2 strain 16681, labeled with eGFP, was added at a multiplicity of infection (MOI) of 0.5. Therefore, 15 μL of virus suspension was added to all the wells containing test compound and to the wells assigned as virus control. In parallel, 15 μL of culture medium was added to the medium and cell controls. Next, the plates were incubated for 3 days in a fully humidified incubator (37° C., 5% CO2). At the day of the read out, the eGFP fluorescence was measured using an automated fluorescence microscope at 488 nm (blue laser). Using an in-house LIMS system, inhibition dose response curves for each compound were calculated and the half maximal effective concentration (EC50) was determined. Therefore, the percent inhibition (I) for every test concentration is calculated using the following formula: I=100*([…])/(SVC−SCC); ST, SCC and SVC are the amount of eGFP signal in the test compound, cell control and virus control wells, respectively. The EC50 represents the concentration of a compound at which the virus replication is inhibited with 50%, as measured by a 50% reduction of the eGFP fluorescent intensity compared to the virus control. The EC50 is calculated using linear interpolation (Table 1).

The next series can be described thus: in vitro. The conditions noted are these: African green monkey.
The next series has as its system DENV-1 strain TC974#666. Nature of the series: Tetravalent RT-qPCR assay, serotype 1. As to conditions: for EC50: RT-qPCR serotype 1 TC974#666, Protocol A, Vero cells, day 3, read-out: EC50; for SI: RT-qPCR serotype 1 TC974#666. In kind it is cell-based, Dengue virus. How it is done:
(§1) The antiviral activity of the compounds of the invention was tested against DENV-1 strain TC974#666 (NCPV), DENV-2 strain 16681, DENV-3 strain H87 (NCPV) and DENV-4 strain H241 (NCPV) in a RT-qPCR assay. Therefore, Vero cells were infected with either DENV-1, or -2, or -3, or -4 in the presence or absence of test compounds. At day 3 post-infection, the cells were lysed and cell lysates were used to prepare cDNA of both a viral target (the 3′UTR of DENV; Table 2) and a cellular reference gene (β-actin, Table 2). Subsequently, a duplex real time PCR was performed on a Lightcycler480 instrument. The generated Cp value is inversely proportional to the amount of RNA expression of these targets. Inhibition of DENV replication by a test compound result in a shift of Cp's for the 3′UTR gene. On the other hand, if a test compound is toxic to the cells, a similar effect on β-actin expression will be observed. The comparative ΔΔCp method is used to calculate EC50, which is based on the relative gene expression of the target gene (3′UTR) normalized with the cellular housekeeping gene (β-actin). In addition, CC50 values are determined based on the Cp values acquired for the housekeeping gene β-actin.
(§2) The culture medium consisted of minimal essential medium supplemented with 2% of heat-inactivated fetal calf serum, 0.04% gentamycin (50 mg/mL) and 2 mM of L-glutamine. Vero cells, obtained from ECACC, were suspended in culture medium and 75 μL/well was added in 96-well plates (10000 cells/well), which already contain the antiviral compounds. […] In addition, each plate contains wells which are assigned as virus controls (containing cells and virus in the absence of compound) and cell controls (containing cells in the absence of virus and compound). Once the cells were added in the plates, the plates were incubated in a fully humidified incubator (37° C., 5% CO2) until the next day. Dengue viruses serotype-1, 2, 3 and 4 were diluted in order to obtain a Cp of ˜22-24 in the assay. Therefore, 25 μL of virus suspension was added to all the wells containing test compound and to the wells assigned as virus control. In parallel, 25 μL of culture medium was added to the cell controls. Next, the plates were incubated for 3 days in a fully humidified incubator (37° C., 5% CO2). After 3 days, the supernatant was removed from the wells and the cells were washed twice with ice-cold PBS (˜100 μL). The cell pellets within the 96-well plates were stored at −80° C. for at least 1 day. Next, RNA was extracted using the Cells-to-CT™ lysis kit, according to the manufacturer's guideline (Life Technologies). The cell lysates can be stored at −80° C. or immediately used in the reverse transcription step.
(§3) In preparation of the reverse transcription step, mix A (table 3A) was prepared and 7.57 μL/well was dispensed in a 96-well plate. After addition of 5 μL of the cell lysates, a five minute denaturation step at 75° C. was performed (table 3B). Afterwards, 7.43 μL of mix B was added (table 3C) and the reverse transcription step was initiated (table 3D) to generate cDNA.
(§4) Finally, a RT-qPCR mix was prepared, mix C (table 4A), and 22.02 μL/well was dispensed in 96-well LightCycler qPCR plates to which 3 μL of cDNA was added and the qPCR was performed according to the conditions in table 4B on a LightCycler 480.
(§5) Using the LightCycler software and an in-house LIMS system, dose response curves for each compound were calculated and the half maximal effective concentration (EC50) and the half maximal cytotoxic concentration (CC50) were determined (Tables 5-8).

For the next series, the system named is DENV-3 strain H87. Kind of series: Tetravalent RT-qPCR assay, serotype 3. The conditions noted are these: for EC50: RT-qPCR serotype 3 H87, Protocol A, Vero cells, day 3, read-out: EC50; for SI: RT-qPCR serotype 3 H87. Format: cell-based, Dengue virus. How it is done:
as §1, §2, §3, §4, §5

The next series has as its system DENV-2 strain 16681. Nature of the series: Tetravalent RT-qPCR assay, serotype 2. Format: cell-based, Dengue virus. As to conditions: for EC50: RT-qPCR serotype 2 16681, Protocol A, Vero cells, day 3; for SI: RT-qPCR serotype 2 16681. How it is done: as §1, §2, §3, §4, §5
Another series deals with DENV-4 strain H241. Kind of series: Tetravalent RT-qPCR assay, serotype 4. Format: cell-based, Dengue virus. The conditions noted are these: for EC50: RT-qPCR serotype 4 H241, Protocol A, Vero cells, day 3; for SI: RT-qPCR serotype 4 H241. How it is done:
as §1, §2, §3, §4, §5

The mark [1] stands for this setting: Dengue virus, DENV1, Vero, 72 h.
Setting [2] is: Dengue virus, DENV3, Vero, 72 h.
Setting [3] is: Dengue virus, DENV2, Vero, 72 h.
The mark [4] stands for this setting: Dengue virus, DENV4, Vero, 72 h.

Like-named read-outs stand apart in the source and are kept apart here.

In the series on DENV-2 16681 strain, `COc1cc(NC(C(=O)c2c[nH]c3cc(OC)c(C)c(F)c23)c2ccc(Cl)cc2OC)cc(OCCO)c1` (single isomer, unassigned) [Compound 12A] registered a concentration giving a half-maximal response (EC50) of 6 nM and an SI of 1200. The molecule further registered a CC50 in “in vitro” of 5.6 µM.
For `COc1cc(NC(C(=O)c2c[nH]c3cc(F)c(C)cc23)c2ccc(Cl)cc2OC)cc(OCCO)c1` (single isomer, unassigned) [Compound 9A], in that order: 52 nM, 70 and 3.7 µM.
As to `[2H]C(Nc1cc(OC)cc(OCCO)c1)(C(=O)c1c[nH]c2cc(F)ccc12)c1ccc(Cl)cc1OC` (single isomer, unassigned) [Compound 13A-D], the EC50 is 5.2 nM in the series on DENV-1 strain TC974#666 (setting [1]); 0.46 nM with DENV-2 16681 strain; 36 nM in the series on DENV-3 strain H87 (setting [2]); 0.61 nM in the series with DENV-2 strain 16681 (setting [3]); 210 nM in the series on DENV-4 strain H241 (setting [4]). Moreover, the SI with DENV-1 strain TC974#666 is recorded as 3070; in the series with DENV-2 16681 strain it was 24300; with DENV-3 strain H87 it was over 96; in the series on DENV-2 strain 16681, over 8520; in the series with DENV-4 strain H241, 24. Besides, the CC50 in “in vitro” stood at 11 µM.
Turning to `COc1cc(NC(C(=O)c2c[nH]c3c4c(ccc23)OCC4)c2ccc(Cl)cc2OC)cc(OCCO)c1` (single isomer, unassigned) [Compound 11A], the EC50 amounted to 8.5 nM in the series on DENV-1 strain TC974#666 (setting [1]); 0.88 nM in the series on DENV-2 16681 strain; 28 nM in the series with DENV-3 strain H87 (setting [2]); 1.9 nM in the series on DENV-2 strain 16681 (setting [3]); 270 nM in the series on DENV-4 strain H241 (setting [4]). The SI was 1350 in the series on DENV-1 strain TC974#666; 7460 in the series with DENV-2 16681 strain; 359 in the series with DENV-3 strain H87; 2490 in the series on DENV-2 strain 16681; over 9.1 in the series with DENV-4 strain H241. The same molecule displayed a CC50 in the series “in vitro” of 6 µM.
On to `COc1cc(NC(C(=O)c2c[nH]c3cc(OC(F)(F)F)c(C)cc23)c2ccc(F)cc2OC)cc(OCCO)c1` (single isomer, unassigned) [Compound 4A], for which, in the series with DENV-2 16681 strain, the concentration giving a half-maximal response (EC50) stood at 630 nM and the SI came to 5.4. In addition, the CC50 in “in vitro” turned out to be 3.4 µM.
For `COc1cc(NC(C(=O)c2c[nH]c3c4c(ccc23)OCC4)c2ccc(F)cc2OC)cc(OCCO)c1` (single isomer, unassigned) [Compound 8A], the EC50 is 20 nM with DENV-1 strain TC974#666 (setting [1]); 4.3 nM in the series with DENV-2 16681 strain; 150 nM with DENV-3 strain H87 (setting [2]); 8.1 nM with DENV-2 strain 16681 (setting [3]); 710 nM in the series on DENV-4 strain H241 (setting [4]). Also, the SI worked out at 560 in the series with DENV-1 strain TC974#666; 4240 in the series with DENV-2 16681 strain; 64 in the series with DENV-3 strain H87; 1530 in the series with DENV-2 strain 16681; 20 in the series on DENV-4 strain H241. The CC50 in the series “in vitro” was determined as 12 µM.
Consider `CCOc1cc2[nH]cc(C(=O)C(Nc3cc(OC)cc(OCCO)c3)c3ccc(F)cc3OC)c2cc1C` (racemic) [Compound 6, 1-(6-ethoxy-5-methyl-1H-indol-3-yl)-2-(4-fluoro-2-methoxyphenyl)-2-((3-(2-hydroxyethoxy)-5-methoxyphenyl)amino)ethanone], for which a half-maximal effect in the series on DENV-2 16681 strain (setting [3]) (EC50) was put at 1.8 nM. Besides, the SI with DENV-2 16681 strain stood at 3160. In “in vitro”, this molecule came in with a CC50 of 5.7 µM.
Take `COc1cc(NC(C(=O)c2c[nH]c3cc(F)ccc23)c2ccc(Cl)cc2OC)cc(OCCOP(=O)(O)O)c1` (single isomer, unassigned) [13A-P^b]: the 50% effective concentration (EC50) in the series with DENV-1 strain TC974#666 (setting [1]) turned out to be 4.2 nM; with DENV-1 strain TC974#666 (listed as 13A-P^c) it was 4.4 nM; in the series on DENV-2 16681 strain, 0.48 nM; with DENV-2 16681 strain (listed as 13A-P^c), 0.94 nM; with DENV-3 strain H87 (setting [2]), 42 nM; with DENV-3 strain H87 (listed as 13A-P^c), 28 nM. The EC50 came to 0.97 nM in the series with DENV-2 strain 16681, 0.44 nM in the series with DENV-2 strain 16681 (listed as 13A-P^c), 250 nM with DENV-4 strain H241 (setting [4]) and 230 nM with DENV-4 strain H241 (listed as 13A-P^c). Further, the CC50 in the series “in vitro” worked out at 11 µM.
`COc1cc(NC(C(=O)c2c[nH]c3cc(F)ccc23)c2ccc(Cl)cc2OC)cc(OCCOP(=O)(O)O)c1` (racemic) [Compound 13-P, 2-(3-((1-(4-chloro-2-methoxyphenyl)-2-(6-fluoro-1H-indol-3-yl)-2-oxoethyl)amino)-5-methoxyphenoxy)ethyl dihydrogen phosphate]: it took 2.1 nM to reach a half-maximal effect with DENV-2 16681 strain (setting [3]) (EC50). The same molecule had an SI in the series with DENV-2 16681 strain of 5210. The same molecule showed a CC50 in the series “in vitro” of 11 µM.
In the series on DENV-2 16681 strain (setting [3]), `COc1cc(NC(C(=O)c2c[nH]c3cc(OC(F)(F)F)c(C)cc23)c2ccc(F)cc2OC)cc(OCCO)c1` (racemic) [Compound 4, 2-(4-fluoro-2-methoxyphenyl)-2-((3-(2-hydroxyethoxy)-5-methoxyphenyl)amino)-1-(5-methyl-6-(trifluoromethoxy)-1H-indol-3-yl)ethanone] returned an EC50 of 11 nM. This molecule gave an SI in the series on DENV-2 16681 strain of 359. This molecule also showed a CC50 in the series “in vitro” of 3.9 µM.
On to `COc1cc(NC(C(=O)c2c[nH]c3cc4c(cc23)CCO4)c2ccc(Cl)cc2OC)cc(OCCO)c1` (single isomer, unassigned) [Compound 10A], for which, in the series on DENV-2 16681 strain, the EC50 came to 110 nM and the SI is 44. Further, the CC50 in “in vitro” came to 4.9 µM.
